{"source": "patent US4874882A", "about": "“Process for preparing monosodium phosphoenolpyruvate” (Ube Industries, Ltd., priority 1986, dated 1989)", "key": {"beagle": {"system": "beagle", "assay": "Acute toxicity (LD50) to beagle", "type": "in vivo", "conditions": "conclusion from LD50 in beagle", "protocol": "(§1) Acute toxicity (LD50) in the case where monosodium phosphoenolpyruvate monohydrate was administered to a beagle was examined."}, "[1]": {"assay": "Acute toxicity (LD50) to beagle", "type": "in vivo", "conditions": "dog, in vivo, beagle", "protocol": "as §1"}, "[2]": {"system": "ischemic kidney of beagle", "assay": "Effect on ischemic kidney of beagle (BUN and creatinine value, recovery of renal function)", "type": "in vivo, male beagles", "protocol": "The animals used in this experiment were 6 male beagles, and were grouped into a group of 3 beagles to which the injection of PEP·Na prepared in Example should be administered and a group of 3 beagles to which a physiological saline should be administered, to carry out experiments as follows in the same manner as in Test Example 1.\nTo each of the beagles, a 5% aqueous solution of pentobarbital sodium was intravenously injected in an amount of 0.5 ml/kg (b.w.) to apply general anesthesia, and a median incision of its venter was carried out to extirpate the right kidney. Subsequently, the left kidney was exposed to infiltrate xylocaine into the surrounding portion of the renal pelvis, and the blood flow of the left renal artery was blocked for 90 minutes while handling the kidney with tender care. Thereafter, blocking was released for reperfusion. To the beagles belonging to the PEP·Na administered group, PEP·Na was intravenously administered in the form of an injection prepared in Example, with a dose of 100 mg/kg (b.w.) every time immediately after release of blocking, and, also, thereafter, PEP·Na was similarly administered with a dose of 100 mg/kg (b.w.) once a day every day. On the other hand, to the beagles belonging to the control group, physiological saline was intravenously administered in an amount of 10 ml/kg (b.w.) every time immediately after release of blocking, and, also thereafter, physiological saline was similarly administered in an amount of 10 ml/kg (b.w.) once a day.\nNext, BUN and creatinine value were assayed with time to make an index showing the recovery rate of renal function. Results obtained are shown in Table 3 and Table 4 and also in FIG. 3 and FIG. 4."}, "[3]": {"system": "ischemic kidney of rabbit", "assay": "Effect on ischemic kidney of rabbit (BUN and creatinine value in blood, recovery of renal function)", "type": "in vivo, male Japanese white-strain rabbits", "description": "The animals used in this experiment were 10 male Japanese white-strain rabbits, and were grouped into a group of 5 rabbits to which the injection of monosodium phosphoenolpyruvate (hereinafter simply called \"PEP·Na\") prepared in Example 4 should be administered and a group of 5 rabbits to which a physiological saline should be administered,to carry out experiments as follows:\nTo each of the rabbits used in this experiment, a 1% aqueous solution of pentobarbital sodium was intravenously injected in an amount of 3 ml/kg (b.w.) to apply general anesthesia, and a median incision of its venter was carried out to extirpate the right kidney. Subsequently, the left kidney was exposed to infiltrate xylocaine into the surrounding portion of the renal pelvis, and the left renal artery was blocked while handling the kidney with tender care. More specifically, the blood flow of the renal artery was blocked for 60 minutes, and then released for 10 minutes, followed by blocking for more 60 minutes, to perform ischemia for 120 minutes in total. Thereafter, blocking was released for reperfusion. During these procedures, to the rabbits belonging to the PEP·Na group, PEP·Na was intravenously administered in the form of an injection prepared in Example, with a dose of 10 mg/kg (b.w.) every time immediately before release of the first and the second blocking, and, also after release of the blocking, PEP·Na was similarly administered with a dose of 10 mg/kg (b.w.) once a day. On the other hand, to the rabbits belonging to the control group, a physiological saline was intravenously administered in an amount of 1 ml/kg (b.w.) every time immediately before release of the first and the second blocking, and, also after release of the blocking, the physiological saline was similarly administered in an amount of 1 ml/kg (b.w.) once a day, every day.\nNext, blood urea nitrogen (hereinafter \"BUN\") and creatinine value which are standards to know the morbidity of a kidney were assayed with time to make an index showing the recovery rate of renal function. Results obtained are shown in Table 1 and Table 2 and also in FIG. 1 and FIG. 2."}, "[4]": {"conditions": "after 1 day, 100 mg/kg i.v. immediately after release of blocking, then once a day"}, "[5]": {"conditions": "after 2 days, 100 mg/kg i.v. immediately after release of blocking, then once a day"}, "[6]": {"conditions": "after 3 days, 100 mg/kg i.v. immediately after release of blocking, then once a day"}, "[7]": {"conditions": "after 4 days, 100 mg/kg i.v. immediately after release of blocking, then once a day"}, "[8]": {"conditions": "immediately before blocking (baseline)"}, "[9]": {"conditions": "after 1 day, 10 mg/kg i.v. before each release of blocking, then once a day"}, "[10]": {"conditions": "after 2 days, 10 mg/kg i.v. before each release of blocking, then once a day"}, "[11]": {"conditions": "after 3 days, 10 mg/kg i.v. before each release of blocking, then once a day"}, "[12]": {"conditions": "after 4 days, 10 mg/kg i.v. before each release of blocking, then once a day"}, "[13]": {"conditions": "after 5 days, 10 mg/kg i.v. before each release of blocking, then once a day"}, "[14]": {"conditions": "rabbits, 1 day (24 hours) after release of blocking"}, "[15]": {"conditions": "rabbits, after day 1, over a period of 4 days, vs control group"}}}
{"smiles": "C=C(OP(=O)(O)O)C(=O)O", "note": "[PEP.Na, monosodium phosphoenolpyruvate monohydrate]", "values": [{"measurement": "safety to a living body", "setting": "beagle", "value": "very safe substance"}, {"measurement": "LD50", "setting": "[1]; intravenous", "value": "≥ 1000", "unit": "mg/kg"}, {"measurement": "LD50", "setting": "[1]; oral", "value": "≥ 3000", "unit": "mg/kg"}, {"measurement": "BUN of beagles in PEP.Na-administered group", "setting": "[2]; [4]", "value": "46 ± 8.3", "unit": "mg/dL"}, {"measurement": "Creatinine value of beagles in PEP.Na-administered group", "setting": "[2]; [4]", "value": "3.0 ± 0.45", "unit": "mg/dL"}, {"measurement": "BUN of beagles in PEP.Na-administered group", "setting": "[2]; [5]", "value": "63 ± 10.1", "unit": "mg/dL"}, {"measurement": "Creatinine value of beagles in PEP.Na-administered group", "setting": "[2]; [5]", "value": "2.9 ± 0.41", "unit": "mg/dL"}, {"measurement": "BUN of beagles in PEP.Na-administered group", "setting": "[2]; [6]", "value": "52 ± 9.6", "unit": "mg/dL"}, {"measurement": "Creatinine value of beagles in PEP.Na-administered group", "setting": "[2]; [6]", "value": "2.5 ± 0.33", "unit": "mg/dL"}, {"measurement": "BUN of beagles in PEP.Na-administered group", "setting": "[2]; [7]", "value": "44 ± 9.2", "unit": "mg/dL"}, {"measurement": "Creatinine value of beagles in PEP.Na-administered group", "setting": "[2]; [7]", "value": "2.0 ± 0.31", "unit": "mg/dL"}, {"measurement": "recovery of renal function", "setting": "[2]; beagle", "value": "apparently effective for the recovery of renal function"}, {"measurement": "BUN compared with control group", "setting": "[2]; beagles, 1 day (24 hours) after release of blocking", "value": "significantly lower value of BUN"}, {"measurement": "creatinine value compared with control group", "setting": "[2]; beagles, 1 day after release of blocking", "value": "significantly lower value of creatinine value"}, {"measurement": "time course of creatinine value", "setting": "[2]; beagles, after day 1, over a period of 3 days", "value": "gradually decreases thereafter over a period of 3 days"}, {"measurement": "time course of BUN", "setting": "[2]; beagles, after release of blocking", "value": "reaches to a maximum after 2 days, but thereafter gradually decreases"}, {"measurement": "BUN of beagles in PEP.Na-administered group", "setting": "[2]; [8]", "value": "15 ± 0.5", "unit": "mg/dL"}, {"measurement": "Creatinine value of beagles in PEP.Na-administered group", "setting": "[2]; [8]", "value": "0.8 ± 0.23", "unit": "mg/dL"}, {"measurement": "BUN of rabbits in PEP.Na-administered group", "setting": "[3]; [9]", "value": "54.2 ± 2.2", "unit": "mg/dL"}, {"measurement": "Creatinine value of rabbits in PEP.Na-administered group", "setting": "[3]; [9]", "value": "2.83 ± 0.74", "unit": "mg/dL"}, {"measurement": "BUN of rabbits in PEP.Na-administered group", "setting": "[3]; [10]", "value": "58.0 ± 15.2", "unit": "mg/dL"}, {"measurement": "Creatinine value of rabbits in PEP.Na-administered group", "setting": "[3]; [10]", "value": "2.61 ± 0.87", "unit": "mg/dL"}, {"measurement": "BUN of rabbits in PEP.Na-administered group", "setting": "[3]; [11]", "value": "44.1 ± 10.5", "unit": "mg/dL"}, {"measurement": "Creatinine value of rabbits in PEP.Na-administered group", "setting": "[3]; [11]", "value": "2.06 ± 0.72", "unit": "mg/dL"}, {"measurement": "BUN of rabbits in PEP.Na-administered group", "setting": "[3]; [12]", "value": "35.5 ± 11.0", "unit": "mg/dL"}, {"measurement": "Creatinine value of rabbits in PEP.Na-administered group", "setting": "[3]; [12]", "value": "1.73 ± 0.40", "unit": "mg/dL"}, {"measurement": "BUN of rabbits in PEP.Na-administered group", "setting": "[3]; [13]", "value": "15.0 ± 5.8", "unit": "mg/dL"}, {"measurement": "Creatinine value of rabbits in PEP.Na-administered group", "setting": "[3]; [13]", "value": "1.19 ± 0.17", "unit": "mg/dL"}, {"measurement": "Creatinine value of rabbits in PEP.Na-administered group", "setting": "[3]; [8]", "value": "1.18 ± 0.06", "unit": "mg/dL"}, {"measurement": "BUN of rabbits in PEP.Na-administered group", "setting": "[3]; immediately before blocking (baseline), mean ± spread", "value": "14.5 ± 1.3", "unit": "mg/dL"}, {"measurement": "recovery of renal function", "setting": "[3]; rabbit", "value": "apparently effective for the recovery of renal function"}, {"measurement": "BUN compared with control group", "setting": "[3]; [14]", "value": "significantly lower value of BUN"}, {"measurement": "creatinine compared with control group", "setting": "[3]; [14]", "value": "significantly lower value of creatinine"}, {"measurement": "time course of BUN", "setting": "[3]; [15]", "value": "gradually decreases thereafter over a period of 4 days and gets back to the value given before blocking earlier than in control group"}, {"measurement": "time course of creatinine", "setting": "[3]; [15]", "value": "gradually decreases thereafter over a period of 4 days and gets back to the value before blocking earlier than in control group"}]}
